Structures are written as SMILES.

The target of one assay is T1, Ephrin type-B receptor 4 (Homo sapiens, UniProt P54760).
T1 sequence (P54760 whole entry): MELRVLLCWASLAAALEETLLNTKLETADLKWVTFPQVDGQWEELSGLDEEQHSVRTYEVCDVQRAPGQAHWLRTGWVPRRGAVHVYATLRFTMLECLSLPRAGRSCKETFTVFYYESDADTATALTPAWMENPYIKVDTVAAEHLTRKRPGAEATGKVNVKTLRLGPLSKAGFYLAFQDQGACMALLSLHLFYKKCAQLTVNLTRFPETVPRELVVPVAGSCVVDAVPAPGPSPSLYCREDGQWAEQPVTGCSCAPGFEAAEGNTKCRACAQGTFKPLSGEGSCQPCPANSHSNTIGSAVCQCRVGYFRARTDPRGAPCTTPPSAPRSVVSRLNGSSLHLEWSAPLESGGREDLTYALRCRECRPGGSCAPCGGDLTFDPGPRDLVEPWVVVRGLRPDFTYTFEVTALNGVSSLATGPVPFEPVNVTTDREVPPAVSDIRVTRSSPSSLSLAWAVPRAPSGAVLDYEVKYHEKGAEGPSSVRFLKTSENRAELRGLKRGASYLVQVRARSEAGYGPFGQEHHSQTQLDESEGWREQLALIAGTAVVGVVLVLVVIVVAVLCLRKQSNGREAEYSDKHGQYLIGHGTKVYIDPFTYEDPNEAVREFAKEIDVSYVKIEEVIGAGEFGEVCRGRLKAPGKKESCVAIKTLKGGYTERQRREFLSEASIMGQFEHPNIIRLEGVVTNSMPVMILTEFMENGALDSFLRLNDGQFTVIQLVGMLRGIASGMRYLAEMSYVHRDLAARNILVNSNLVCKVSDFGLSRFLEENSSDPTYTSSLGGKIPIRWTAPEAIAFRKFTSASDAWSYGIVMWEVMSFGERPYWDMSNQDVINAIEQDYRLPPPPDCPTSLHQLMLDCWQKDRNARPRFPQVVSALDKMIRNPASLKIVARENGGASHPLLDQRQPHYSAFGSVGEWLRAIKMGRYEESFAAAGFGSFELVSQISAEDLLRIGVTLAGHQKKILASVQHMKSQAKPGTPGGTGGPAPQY
As to the kind of experiment: Inhibition of EphB4 after 1 hr.

Assay [1] deals with T2, Ephrin type-B receptor 4 (Homo sapiens) (UniProt P54760).
T2 sequence (whole entry): T1 sequence (P54760 whole entry)
As to the kind of experiment: Inhibition of EphB4 at 1 uM after 1 hr.

Assay [2] addresses T2, Ephrin type-B receptor 4 (Homo sapiens). As to the kind of experiment: Inhibition of EphB4 at 10 uM after 1 hr.

For orientation: IC50 means the point on the concentration scale where inhibition reaches its midpoint. `Cc1ccc(Cl)cc1NC(=O)Nc1cccc(-c2cn3ccnc3c(NCc3ccncc3)n2)c1` registered an IC50 at Ephrin type-B receptor 4 of 160 nM.

Usually inhibition stands for the share of the control response that was lost under treatment. Read a high inhibition as a response far below the control. Consider `COc1ccccc1NC(=O)Nc1cccc(-c2cn3ccnc3c(NCc3ccncc3)n2)c1`, for which the inhibition in assay [1] turned out to be 54%.

In the case of `O=C(Nc1cccc(-c2cn3ccnc3c(Nc3ccncc3)n2)c1)Nc1cccc(C(F)(F)F)c1`, the inhibition in assay [2] worked out at 32%.

`O=C(Nc1cccc(-c2cn3ccnc3c(OCc3ccncc3)n2)c1)Nc1cccc(C(F)(F)F)c1`: at Ephrin type-B receptor 4, half-maximal inhibition (IC50) required 105 nM. This lies in the sub-micromolar range.

In the case of `CCOc1cc(OCC)c(C(F)(F)F)cc1NC(=O)Nc1cccc(-c2cn3ccnc3c(NCc3ccncc3)n2)c1`, the IC50 at Ephrin type-B receptor 4 came to 211 nM.

At Ephrin type-B receptor 4, `O=C(Nc1cccc(-c2cn3ccnc3c(NCc3ccncc3)n2)c1)Nc1ccc(Cl)cc1Cl` returned an IC50 of 1900 nM.

On Ephrin type-B receptor 4, `Cc1ccc(NC(=O)Nc2cccc(-c3cn4ccnc4c(NCc4ccncc4)n3)c2)cc1` returned an IC50 of 7900 nM.

Regarding `O=C(Nc1cccc(-c2cn3ccnc3c(NCc3ccncc3)n2)c1)Nc1cccc(Cl)c1Cl`, the IC50 on Ephrin type-B receptor 4 amounted to 5700 nM.

`Cc1ccccc1NC(=O)Nc1cccc(-c2cn3ccnc3c(NCc3ccncc3)n2)c1`: in assay [1], the inhibition came out at 30%.

Consider `O=C(Nc1cccc(-c2cn3ccnc3c(NCc3ccncc3)n2)c1)Nc1cc(C(F)(F)F)ccc1Cl`, for which the IC50 at Ephrin type-B receptor 4 came to 66 nM.

In turn, `O=C(Nc1ccc(C(F)(F)F)cc1)Nc1cccc(-c2cn3ccnc3c(NCc3ccncc3)n2)c1` had an inhibition in assay [1] of 10%.

Regarding `O=C(Nc1ccc(Cl)cc1)Nc1cccc(-c2cn3ccnc3c(NCc3ccncc3)n2)c1`, the IC50 against Ephrin type-B receptor 4 was found to be 4600 nM.

In turn, `COc1ccc(Cl)cc1NC(=O)Nc1cccc(-c2cn3ccnc3c(NCc3ccncc3)n2)c1` returned an IC50 against Ephrin type-B receptor 4 of 77 nM.

For `Cc1ccc(NC(=O)Nc2cccc(-c3cn4ccnc4c(NCc4ccncc4)n3)c2)cc1C(F)(F)F`, the IC50 at Ephrin type-B receptor 4 came to 810 nM.

`COc1ccc(NC(=O)Nc2cccc(-c3cn4ccnc4c(NCc4ccncc4)n3)c2)cc1` registered an inhibition in assay [1] of 10%.

Turning to `O=C(Nc1cccc(-c2cn3ccnc3c(NCc3ccncc3)n2)c1)Nc1ccccc1C(F)(F)F`, the inhibition in assay [1] was 41%.

As for `O=C(Nc1cccc(-c2cn3ccnc3c(NCC3CCNCC3)n2)c1)Nc1cccc(C(F)(F)F)c1`, on Ephrin type-B receptor 4, 50000 nM corresponded to half-maximal inhibition (IC50). That is a double-digit micromolar value.

For `COc1ccc(C(F)(F)F)cc1NC(=O)CNc1cccc(-c2cn3ccnc3c(NCc3ccncc3)n2)c1`, the inhibition in assay [1] was found to be 2.9%.

Compound `O=C(Nc1cccc(-c2cn3ccnc3c(NCc3ccncc3)n2)c1)c1cccc(C(F)(F)F)c1` gave a 50% inhibitory concentration (IC50) against Ephrin type-B receptor 4 of 744 nM.

For the compound `CN(Cc1ccncc1)c1nc(-c2cccc(NC(=O)Nc3cccc(C(F)(F)F)c3)c2)cn2ccnc12`, the midpoint of inhibition on Ephrin type-B receptor 4, the IC50, lay at 69 nM.

`COc1cc(OC)c(NC(=O)Nc2cccc(-c3cn4ccnc4c(NCc4ccncc4)n3)c2)cc1Cl` yielded an IC50 on Ephrin type-B receptor 4 of 402 nM.

Compound `O=C(Nc1cccc(-c2cn3ccnc3c(NCc3ccncc3)n2)c1)Nc1ccccc1Oc1ccccc1` came in with an inhibition in assay [1] of 22%.

As to `O=C(Nc1cccc(-c2cn3ccnc3c(NCc3ccncc3)n2)c1)Nc1cc(Cl)ccc1Oc1ccccc1`, at Ephrin type-B receptor 4, inhibition was half-maximal at 138 nM (IC50).

Consider `O=C(NCc1cccc(C(F)(F)F)c1)c1cccc(-c2cn3ccnc3c(NCc3ccncc3)n2)c1`, for which the IC50 against Ephrin type-B receptor 4 was 11100 nM.

In assay [1], `O=C(Nc1ccc(Br)cc1)Nc1cccc(-c2cn3ccnc3c(NCc3ccncc3)n2)c1` returned an inhibition of 22%.

As for `O=C(NCc1cccc(-c2cn3ccnc3c(NCc3ccncc3)n2)c1)Nc1cccc(C(F)(F)F)c1`, the IC50 against Ephrin type-B receptor 4 worked out at 6800 nM. This lies in the single-digit micromolar range.

In assay [1], `O=C(Nc1cccc(-c2cn3ccnc3c(NCc3ccncc3)n2)c1)Nc1ccccc1F` displayed an inhibition of 22%.

The compound `O=C(Nc1cccc(-c2cn3ccnc3c(Nc3cccnc3)n2)c1)Nc1cccc(C(F)(F)F)c1` gave an inhibition in assay [1] of 1%.

On to `COc1cc(OC)c(C(F)(F)F)cc1NC(=O)Nc1cccc(-c2cn3ccnc3c(NCc3ccncc3)n2)c1`, for which the IC50 against Ephrin type-B receptor 4 came to 518 nM.

For the compound `O=C(Nc1ccc(-c2cn3ccnc3c(NCc3ccncc3)n2)cc1)Nc1cccc(C(F)(F)F)c1`, at Ephrin type-B receptor 4, the concentration for half-maximal inhibition (IC50) came to 50000 nM.

`Cc1ccc(C)c(NC(=O)Nc2cccc(-c3cn4ccnc4c(NCc4ccncc4)n3)c2)c1`: at Ephrin type-B receptor 4, the IC50 stood at 938 nM.

`O=C(Nc1cccc(-c2cn3ccnc3c(NCc3cccnc3)n2)c1)Nc1cccc(C(F)(F)F)c1` showed an IC50 against Ephrin type-B receptor 4 of 7800 nM.

As for `O=C(Nc1cccc(-c2cn3ccnc3c(NCc3ccncc3)n2)c1)Nc1cc(Cl)c(Cl)cc1Cl`, the IC50 on Ephrin type-B receptor 4 amounted to 517 nM.

With `COc1ccc(Cl)cc1NC(=O)Nc1cccc(-c2cn3ccnc3c(N)n2)c1`, the IC50 on Ephrin type-B receptor 4 is 5400 nM.

The compound `COc1cc(OC)c(NC(=O)Nc2cccc(-c3cn4ccnc4c(NCc4ccncc4)n3)c2)cc1Br` had an IC50 at Ephrin type-B receptor 4 of 206 nM.

`O=C(Nc1cccc(-c2cn3ccnc3c(NCc3ccncc3)n2)c1)Nc1ccccc1Cl` showed an IC50 at Ephrin type-B receptor 4 of 2900 nM.

`COc1ccc(C)cc1NC(=O)Nc1cccc(-c2cn3ccnc3c(NCc3ccncc3)n2)c1` returned an IC50 against Ephrin type-B receptor 4 of 78 nM. Compared with the last compound, the IC50 is about 37-fold lower.

For `O=C(Nc1cccc(F)c1)Nc1cccc(-c2cn3ccnc3c(NCc3ccncc3)n2)c1`, the inhibition in assay [1] is 47%.

`CCc1ccc(NC(=O)Nc2cccc(-c3cn4ccnc4c(NCc4ccncc4)n3)c2)cc1`: in assay [1], the inhibition came to 10%.

As to `CSc1cccc(NC(=O)Nc2cccc(-c3cn4ccnc4c(NCc4ccncc4)n3)c2)c1`, at Ephrin type-B receptor 4, the IC50 was determined as 1200 nM.

In assay [1], `CSc1ccccc1NC(=O)Nc1cccc(-c2cn3ccnc3c(NCc3ccncc3)n2)c1` displayed an inhibition of 63%.

On Ephrin type-B receptor 4, `O=C(Nc1cc(Cl)cc(Cl)c1)Nc1cccc(-c2cn3ccnc3c(NCc3ccncc3)n2)c1` showed an IC50 of 1800 nM.

At Ephrin type-B receptor 4, `COc1cccc(NC(=O)Nc2cccc(-c3cn4ccnc4c(NCc4ccncc4)n3)c2)c1` displayed an IC50 of 1700 nM.

In the case of `O=C(Nc1cccc(-c2cn3ccnc3c(NCc3ccncc3)n2)c1)Nc1ccc(Cl)c(C(F)(F)F)c1`, the IC50 on Ephrin type-B receptor 4 turned out to be 1200 nM.

`O=C(Nc1cccc(-c2cn3ccnc3c(NCc3ccncc3)n2)c1)Nc1cc(Cl)ccc1Cl` registered an IC50 against Ephrin type-B receptor 4 of 101 nM.

On Ephrin type-B receptor 4, `O=C(Nc1cccc(-c2cn3ccnc3c(NCc3ccc(C(=O)O)cc3)n2)c1)Nc1cccc(C(F)(F)F)c1` registered an IC50 of 5300 nM. This IC50 lies about 52-fold higher than the previous one.

With `O=C(Cc1cccc(C(F)(F)F)c1)Nc1cccc(-c2cn3ccnc3c(NCc3ccncc3)n2)c1`, at Ephrin type-B receptor 4, the concentration for half-maximal inhibition (IC50) is 2400 nM.

In the case of `O=C(Nc1cccc(-c2cn3ccnc3c(NCc3ccccc3)n2)c1)Nc1cccc(C(F)(F)F)c1`, the IC50 against Ephrin type-B receptor 4 came out at 50000 nM.

At Ephrin type-B receptor 4, `O=C(Nc1cccc(-c2cn3ccnc3c(NCc3ccncc3)n2)c1)Nc1ccc(F)c(C(F)(F)F)c1` registered an IC50 of 850 nM.

For `O=C(Nc1cccc(Br)c1)Nc1cccc(-c2cn3ccnc3c(NCc3ccncc3)n2)c1`, the IC50 on Ephrin type-B receptor 4 amounted to 213 nM.

In the case of `O=C(Nc1cccc(Cl)c1)Nc1cccc(-c2cn3ccnc3c(NCc3ccncc3)n2)c1`, at Ephrin type-B receptor 4, the IC50 was determined as 165 nM.

On to `N#Cc1cccc(NC(=O)Nc2cccc(-c3cn4ccnc4c(NCc4ccncc4)n3)c2)c1`, for which, at Ephrin type-B receptor 4, the IC50 amounted to 1900 nM.

`O=C(Nc1cccc(-c2cn3ccnc3c(NCc3ccncc3)n2)c1)Nc1ccc(Cl)c(Cl)c1`: the midpoint of inhibition on Ephrin type-B receptor 4, the IC50, lay at 2500 nM.

On Ephrin type-B receptor 4, `O=C(Nc1cccc(-c2cn3ccnc3c(NCc3ccncc3)n2)c1)Nc1cc(C(F)(F)F)ccc1O` showed an IC50 of 37 nM.

As to `COc1ccc(C#N)cc1NC(=O)Nc1cccc(-c2cn3ccnc3c(NCc3ccncc3)n2)c1`, 125 nM corresponded to half-maximal inhibition against Ephrin type-B receptor 4 (IC50). This IC50 is about 3.4-fold higher than that of the compound before.

For `O=C(Nc1cccc(-c2cn3ccnc3c(NCc3ccncc3)n2)c1)Nc1c(Cl)cccc1Cl`, the IC50 on Ephrin type-B receptor 4 is 1000 nM.

As for `O=C(NCc1cccc(C(F)(F)F)c1)Nc1cccc(-c2cn3ccnc3c(NCc3ccncc3)n2)c1`, the IC50 against Ephrin type-B receptor 4 was determined as 2100 nM.

Compound `O=C(Nc1cccc(-c2cn3ccnc3c(NCCc3ccncc3)n2)c1)Nc1cccc(C(F)(F)F)c1` displayed an IC50 at Ephrin type-B receptor 4 of 158 nM. Compared with the last compound, the IC50 is about 13-fold lower.

The compound `O=C(Nc1cccc(-c2cn3ccnc3c(NCc3ccccn3)n2)c1)Nc1cccc(C(F)(F)F)c1` came in with an inhibition in assay [2] of 32%.

In the case of `O=C(Nc1ccc(F)cc1)Nc1cccc(-c2cn3ccnc3c(NCc3ccncc3)n2)c1`, the IC50 on Ephrin type-B receptor 4 amounted to 7400 nM.

Compound `Cc1cccc(NC(=O)Nc2cccc(-c3cn4ccnc4c(NCc4ccncc4)n3)c2)c1` returned a half-inhibitory concentration (IC50) at Ephrin type-B receptor 4 of 300 nM.

`CNc1nc(-c2cccc(NC(=O)Nc3cc(Cl)ccc3OC)c2)cn2ccnc12` had an IC50 at Ephrin type-B receptor 4 of 5700 nM.

In turn, `O=C(Nc1ccccc1)Nc1cccc(-c2cn3ccnc3c(NCc3ccncc3)n2)c1` came in with an inhibition in assay [1] of 10%.

Turning to `O=C(Nc1cccc(Oc2ccccc2)c1)Nc1cccc(-c2cn3ccnc3c(NCc3ccncc3)n2)c1`, 10500 nM corresponded to half-maximal inhibition against Ephrin type-B receptor 4 (IC50). This counts as double-digit micromolar.

As to `O=C(Nc1cccc(-c2cn3ccnc3c(Nc3ccccc3)n2)c1)Nc1cccc(C(F)(F)F)c1`, the inhibition in assay [2] worked out at 36%.

`O=C(Nc1cccc(-c2cn3ccnc3c(NCc3ccncc3)n2)c1)Nc1ccccc1Br` returned an IC50 against Ephrin type-B receptor 4 of 1700 nM.

As for `O=S(=O)(Nc1cccc(-c2cn3ccnc3c(NCc3ccncc3)n2)c1)c1cccc(C(F)(F)F)c1`, on Ephrin type-B receptor 4, inhibition was half-maximal at 50000 nM (IC50). Compared with the last compound, the IC50 is about 29-fold higher.

For the origin of these results see ChEMBL document CHEMBL1153704, “Imidazo[1,2-a]pyrazine diaryl ureas: inhibitors of the receptor tyrosine kinase EphB4” (Bioorg Med Chem Lett, 2009).
